Test results as given in paper PMC12569736 (Journal of Cosmetic Dermatology, 2025).

Legend:
human tyrosinase (hTYR) = target: T1, human tyrosinase (hTYR) (Homo sapiens, UniProt P14679); assay: L‐DOPA oxidation assay for tyrosinase activity (MNT‐1 cell lysate); assay type: biochemical; conditions: for IC50: MNT‐1 lysate, L‐DOPA 4 mM, pH 6.9, read-out: IC50 against hTYR; for inhibition at 0.4 µM: read-out: inhibitory activity against hTYR compared to the control; for inhibitory effect on hTYR at maximum tested concentration: up to 33.3 μM
T1 construct: tyrosinase enzyme solution derived from MNT‐1 cells; endogenous in cells; host or cells: MNT-1 human melanoma cell line (crude lysate supernatant)
T1 sequence (P14679 19-529): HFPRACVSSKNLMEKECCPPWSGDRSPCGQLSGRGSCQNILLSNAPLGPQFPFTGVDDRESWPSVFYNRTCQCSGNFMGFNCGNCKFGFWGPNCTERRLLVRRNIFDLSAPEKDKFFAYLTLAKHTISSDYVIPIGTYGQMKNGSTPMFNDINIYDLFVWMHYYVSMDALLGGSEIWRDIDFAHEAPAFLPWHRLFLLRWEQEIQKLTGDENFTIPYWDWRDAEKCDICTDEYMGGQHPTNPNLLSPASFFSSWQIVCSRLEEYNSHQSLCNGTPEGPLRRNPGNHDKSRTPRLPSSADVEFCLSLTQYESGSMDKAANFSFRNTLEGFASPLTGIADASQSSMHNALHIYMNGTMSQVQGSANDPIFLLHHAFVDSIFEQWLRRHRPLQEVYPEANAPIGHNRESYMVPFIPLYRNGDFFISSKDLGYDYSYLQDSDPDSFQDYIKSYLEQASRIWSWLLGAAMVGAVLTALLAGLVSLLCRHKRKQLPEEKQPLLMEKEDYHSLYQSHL
Description: The hTYR‐mediated L‐DOPA oxidation assay was performed according to Winder and Harris. MNT‐1 cells were resuspended in 0.05 M sodium phosphate buffer (pH 6.9) and sonicated for 1 min. After incubation on ice for 3–5 min, the mixture underwent a second sonication. The lysate was centrifuged at 13 000 rpm for 15 min at 4°C, and the supernatant was collected and kept on ice.
For the assay, 20 μL of crude enzyme solution and 80 μL sodium phosphate buffer were added to a 96‐well plate and centrifuged at 1000 rpm for 30 s. Subsequently, 2 μL of different concentrations of test compounds were added to each well, followed by centrifugation at 1000 rpm for 30 s. Finally, 100 μL L‐DOPA (final concentration 4 mM) was added to initiate the reaction. The microplate reader (Synergy H1 Hybrid Reader, BioTek) was used to monitor the reaction at 26°C, measuring absorbance at 475 nm every minute for 60 min. IC50 values were calculated using GraphPad software based on Vmax values from the kinetic curves.
The L‐DOPA tyrosinase assay was performed using a tyrosinase enzyme solution derived from MNT‐1 cells in 50 mM sodium phosphate buffer (pH 6.9), with a substrate (L‐DOPA) concentration of 4 mM and various concentrations of inhibitors as indicated. Data represent mean ± standard deviation of three independent experiments.

MNT‐1 cells = assay: Melanin content in MNT‐1 cells after 6 days of treatment; assay type: cell-based, human; conditions: for inhibition of melanin production: 0.37 μM; for inhibition of melanin production / inhibition at 1.1 µM / inhibition at 3.3 µM / inhibition at 10 µM: 6 days; for IC50 / inhibition at 1.1 µM / inhibition at 3.3 µM / inhibition at 10 µM: Homo sapiens; for IC50: 144 h, MNT‐1, 6 days, read-out: IC50 of melanin production; for inhibition at 1.1 µM / inhibition at 3.3 µM / inhibition at 10 µM: MNT-1, 144 h, read-out: inhibition of melanin production
Description: MNT‐1 cells were exposed to varying concentrations of test compounds for 6 days. After treatment, cells were harvested and lysed in RIPA buffer on ice for 20 min. Lysates were centrifuged at 13 000 rpm for 10 min at 4°C, and the supernatant was collected. Protein concentration was quantified using a BCA Protein Assay Kit (Thermo Fisher). To extract melanin, cell pellets were dissolved in 1 M NaOH and incubated for 3 h at 80°C. Absorbance at 405 nm was measured using a Synergy H1 Hybrid Reader. Melanin content was quantified by referencing a standard curve of synthetic melanin (maximum concentration 50 μg/mL, 2‐fold gradient dilution, 8 concentration points). Melanin content was normalized to protein concentration (μg melanin/mg protein), and IC50 values were calculated using GraphPad software.
FIGURE 3 Inhibition of melanin production in MNT‐1 by KT‐939, Thiamidol, and 4‐butylresorcinol. MNT‐1 cells were treated with different concentrations of KT‐939, Thiamidol, or 4‐butylresorcinol for 6 days. The melanin content was quantified based on the standard curve of melanin, and the melanin content per mg of protein was utilized for IC50 calculations with GraphPad software.

hTYR enzyme = target: hTYR enzyme; set-up: method as in PMID 29427586; conditions: purified hTYR; read-out: IC50 against the hTYR enzyme; cited from earlier work
MelanoDerm skin model = tested on: MelanoDerm skin model; set-up: method as in PMID 29427586; conditions: cited from earlier work
melasma = tested on: melasma; set-up: method as in PMID 34676600; conditions: moderate‐to‐severe melasma, 24 weeks of application, cited from earlier work
[1] = tested on: NRF2/ARE signaling pathway; assay: NRF2/ARE‐luciferase reporter assay in HEK293T cells; assay type: cell-based, human; conditions: 10 µM, 48 h, relative to DMSO
Description: The NRF2‐responsive firefly luciferase reporter plasmid (pGL4.27_ARE NRF2‐SPE) and Renilla luciferase control plasmid (pRL‐TK) were co‐transfected into HEK293T cells using Lipofectamine 2000. After 24 h, transfected cells were seeded into 96‐well plates and incubated overnight. Test compounds (10 μM) were added, and cells were incubated for an additional 48 h. Luciferase activities were measured using the Dual‐Lumi Luciferase Reporter Assay Kit (Beyotime Biotechnology), following the manufacturer's instructions.
FIGURE 6 KT‐939 activates the ARE/NRF2 signaling pathway. HEK293T cells transfected with an NRF2‐responsive firefly luciferase reporter were treated with 10 µM of KT‐939, hydroquinone (Hq), 377, or 4‐butylresorcinol for 48 h. Luminescence signals were normalized to renilla and expressed relative to DMSO control. *** p < 0.001 vs DMSO.

In the case of `CC(C)C(=O)Nc1nc(-c2ccc(O)cc2O)cs1` [Thiamidol, isobutylamido thiazolyl resorcinol], the IC50 (human tyrosinase (hTYR)) is reported as 0.33 µM, the inhibition at 0.4 µM (human tyrosinase (hTYR); at 0.4 μM) is reported as 53.5% and the “inhibition of melanin production” value (MNT‐1 cells) is reported as “neither Thiamidol nor 4‐butylresorcinol showed inhibitory activity”. The IC50 (MNT‐1 cells) was 1.3 µM, the inhibition at 1.1 µM (MNT‐1 cells) was 27.2% and the inhibition at 3.3 µM (MNT‐1 cells) was 62.2%. The inhibition at 10 µM (MNT‐1 cells) was 76.5%, the IC50 (hTYR enzyme) was 1.1 µM and the IC50 (MelanoDerm skin model) was 0.9 µM. The tolerability (melasma) was “favorable tolerability” and the “melasma severity compared to baseline and vehicle” value (melasma; Fitzpatrick phototypes III–V) was “significantly reduced melasma severity”.
In the case of `CCCCc1ccc(O)cc1O` [4‐butylresorcinol], the IC50 (human tyrosinase (hTYR)) is reported as 7.09 µM, the inhibition at 0.4 µM (human tyrosinase (hTYR); at 0.4 μM) is reported as 9.7% and the “inhibition of melanin production” value (MNT‐1 cells) is reported as “neither Thiamidol nor 4‐butylresorcinol showed inhibitory activity”. The IC50 (MNT‐1 cells) was 8 µM, the inhibition at 1.1 µM (MNT‐1 cells) was 15.8% and the inhibition at 3.3 µM (MNT‐1 cells) was 32.6%. For the same compound, the inhibition at 10 µM (MNT‐1 cells) was 48.4% and the “NRF2 signaling pathway activation (luciferase reporter)” value (“NRF2 signaling pathway activation” below) [1] was “no effect on NRF2 activation”.
For `Oc1ccc(O)cc1` [hydroquinone], the “inhibitory effect on hTYR at maximum tested concentration” value (“inhibitory effect on hTYR” for short) (human tyrosinase (hTYR)) was “no significant inhibitory effects” and the “NRF2 signaling pathway activation” value [1] was “no effect on NRF2 activation”.
For `CC(c1ccccc1)c1ccc(O)cc1O` (centres unmarked) [compound 377, phenethyl resorcinol], the IC50 (human tyrosinase (hTYR)) was 21.3 µM, the “inhibitory activity against hTYR compared to the control” value (human tyrosinase (hTYR); at 0.4 μM) was 2.7% and the “NRF2 signaling pathway activation” value [1] was “no effect on NRF2 activation”.
In the case of `OC[C@H]1O[C@@H](Oc2ccc(O)cc2)[C@H](O)[C@@H](O)[C@@H]1O` [arbutin], the “inhibitory effect on hTYR” value (human tyrosinase (hTYR)) is reported as “no significant inhibitory effects”.
With `CC1(C)C=Cc2c(ccc3c2OC[C@@H](c2ccc(O)cc2O)C3)O1` [glabridin] the “inhibitory effect on hTYR” value (human tyrosinase (hTYR)) was “no significant inhibitory effects”.
Work on `Oc1ccc(/C=C/c2cc(O)cc(O)c2)cc1` [resveratrol] yielded an IC50 (human tyrosinase (hTYR)) of 6.04 µM and an inhibition at 0.4 µM (human tyrosinase (hTYR); at 0.4 μM) of 13.4%.
For `NC(=O)c1cccnc1` [nicotinamide], the “inhibitory effect on hTYR” value (human tyrosinase (hTYR)) was “no significant inhibitory effects”.
